Experimental data taken from ChEMBL document CHEMBL4028802, “DILIrank: the largest reference drug list ranked by the risk for developing drug-induced liver injury in humans” (Drug Discov Today, 2016).
Starred links: 1 amine or outer side, 2 acyl side, 3 side chain; linkers in the order of their positions; H or OH if unused. Positions of bridges follow the written chain, without caps; N, C: chain ends. Non-standard residues stand in square brackets, D forms with d. Residues, ends and D or L forms follow the SMILES beside them. Chains are numbered I, II in the order given. Actinocin(9to1) = Cc1c2oc3c(C)ccc(C(=O)[*:1])c3nc-2c(C(=O)[*:2])c(N)c1=O; NMeV = CN[C@H](C(=O)O)C(C)C; Sar = CNCC(=O)O

Tests used:
Homo sapiens [1] = species: Homo sapiens; test: Liver toxicity in human assessed as induction of drug-induced liver injury by measuring severity class index
Homo sapiens [2] = species: Homo sapiens; test: Liver toxicity in human assessed as induction of drug-induced liver injury by measuring verified drug-induced liver injury concern status
For DILI severity class in this document: key of the grades not given here.

| Compound | DILI_severity_class (Homo sapiens [1]) | DILI_Concern (Homo sapiens [2]) |
| --- | --- | --- |
| CN/C(=N/CCSCc1nc[nH]c1C)NC#N [CIMETIDINE] | 2 | Less-Dili-Concern |
| CCN(CC)CCNC(=O)c1cc(Cl)c(N)cc1OC [METOCLOPRAMIDE] | 5 | Less-Dili-Concern |
| O=C([O-])O.[Na+] [SODIUM BICARBONATE] | 0 | No-Dili-Concern |
| CC(C)(C)NC(=O)[C@@H]1CN(Cc2cccnc2)CCN1C[C@@H](O)C[C@@H](Cc1ccccc1)C(=O)N[C@H]1c2ccccc2C[C@H]1O.O | 8 | Ambiguous-Dili-Concern |
| CC[C@@H]1C(=O)OC[C@@H]1Cc1cncn1C [PILOCARPINE] | 3 | Ambiguous-Dili-Concern |
| NS(=O)(=O)c1cc2c(cc1C(F)(F)F)NC(Cc1ccccc1)NS2(=O)=O (stereo not given) [BENDROFLUMETHIAZIDE] | 5 | Less-Dili-Concern |
| CCOc1ccc2ccccc2c1C(=O)N[C@@H]1C(=O)N2[C@@H]1SC(C)(C)[C@@H]2C(=O)O [NAFCILLIN] | 3 | Less-Dili-Concern |
| CNS(=O)(=O)CCc1ccc2[nH]cc(C3CCN(C)CC3)c2c1 | 4 | Ambiguous-Dili-Concern |
| CC(=O)Oc1cc2c(s1)CCN(C(C(=O)C1CC1)c1ccccc1F)C2.Cl (stereo not given) [PRASUGREL HYDROCHLORIDE] | 0 | Less-Dili-Concern |
| C[C@H](Cc1cc2c(c(C(N)=O)c1)N(CCCO)CC2)NCCOc1ccccc1OCC(F)(F)F [SILODOSIN] | 3 | Ambiguous-Dili-Concern |
| COc1ccc2c(C(=O)c3ccc(Cl)cc3)c(C)n(CC(=O)O)c2c1 [CLOMETACIN] | 8 | Most-Dili-Concern |
| CC(=O)/N=c1/sc(S(N)(=O)=O)nn1C [METHAZOLAMIDE] | 7 | Less-Dili-Concern |
| CC(=O)Oc1ccc(C(=C2CCCCC2)c2ccc(OC(C)=O)cc2)cc1 [CYCLOFENIL] | 8 | Most-Dili-Concern |
| CC1(C)C(/C=C/C=C/C=C/C=C2/N(CCCCS(=O)(=O)[O-])c3ccc4ccccc4c3C2(C)C)=[N+](CCCCS(=O)(=O)[O-])c2ccc3ccccc3c21.[Na+] [INDOCYANINE GREEN] | 0 | No-Dili-Concern |
| CN1CCC(Nc2ncc3ncnc(Nc4ccc(F)c(Cl)c4)c3n2)CC1 [FALNIDAMOL] | 8 | Most-Dili-Concern |
| O=C(CCNNC(=O)c1ccncc1)NCc1ccccc1 [NIALAMIDE] | 8 | Most-Dili-Concern |
| CN(C)CCOC(c1ccccc1)c1ccccc1.Cn1c(=O)c2[nH]c(Cl)nc2n(C)c1=O [DIMENHYDRINATE] | 0 | No-Dili-Concern |
| O=C1CN(/N=C/c2ccc([N+](=O)[O-])o2)C(=O)N1 [NITROFURANTOIN] | 8 | Most-Dili-Concern |
| C[C@@H](O[C@H]1OCCN(Cc2n[nH]c(=O)[nH]2)[C@H]1c1ccc(F)cc1)c1cc(C(F)(F)F)cc(C(F)(F)F)c1 [APREPITANT] | 3 | Ambiguous-Dili-Concern |
| C=C(c1ccc(C(=O)O)cc1)c1cc2c(cc1C)C(C)(C)CCC2(C)C [BEXAROTENE] | 8 | Most-Dili-Concern |
| CCC[C@@H]1C[C@@H](C(=O)N[C@@H]([C@H]2O[C@H](SC)[C@H](O)[C@@H](O)[C@H]2O)[C@@H](C)O)N(C)C1 [LINCOMYCIN] | 3 | Ambiguous-Dili-Concern |
| N[C@@H](CC(=O)N1CCn2c(nnc2C(F)(F)F)C1)Cc1cc(F)c(F)cc1F [SITAGLIPTIN] | 4 | Less-Dili-Concern |
| CC(O)(CS(=O)(=O)c1ccc(F)cc1)C(=O)Nc1ccc(C#N)c(C(F)(F)F)c1 (stereo not given) [BICALUTAMIDE] | 8 | Most-Dili-Concern |
| O=C1Nc2ccccc2C1(c1ccc(O)cc1)c1ccc(O)cc1 [OXYPHENISATINE] | 8 | Most-Dili-Concern |
| CC[N+](C)(C)c1cccc(O)c1 [EDROPHONIUM] | 0 | No-Dili-Concern |
| O=C(O)c1cc(/N=N/c2ccc(S(=O)(=O)Nc3ccccn3)cc2)ccc1O [SULFASALAZINE] | 5 | Most-Dili-Concern |
| CC(C)[N+](C)(CCOC(=O)C1c2ccccc2Oc2ccccc21)C(C)C [PROPANTHELINE] | 0 | No-Dili-Concern |
| Cc1c2oc3c(C)ccc(C(=O)N[C@@H]4C(=O)N[C@H](C(C)C)C(=O)N5CCC[C@H]5C(=O)N(C)CC(=O)N(C)[C@@H](C(C)C)C(=O)O[C@@H]4C)c3nc-2c(C(=O)N[C@@H]2C(=O)N[C@H](C(C)C)C(=O)N3CCC[C@H]3C(=O)N(C)CC(=O)N(C)[C@@H](C(C)C)C(=O)O[C@@H]2C)c(N)c1=O [DACTINOMYCIN] (I: T[dV]P[Sar][NMeV] / II: T[dV]P[Sar][NMeV]; ester I:1-I:C, II:1-II:C; linker I:N-II:N via Actinocin(9to1)) | 8 | Most-Dili-Concern |

| Compound | DILI_severity_class (Homo sapiens [1]) | DILI_Concern (Homo sapiens [2]) |
| --- | --- | --- |
| Cc1c(OCC(F)(F)F)ccnc1C[S@@+]([O-])c1nc2ccccc2[nH]1 [DEXLANSOPRAZOLE] | 4 | Less-Dili-Concern |
| OCC(S)CS (stereo not given) [DIMERCAPROL] | 0 | No-Dili-Concern |
| C#CCN[C@@H]1CCc2ccccc21 [RASAGILINE] | 3 | Ambiguous-Dili-Concern |
| O=C1c2c(O)ccc(O)c2C(=O)c2c(NCCNCCO)ccc(NCCNCCO)c21 [MITOXANTRONE] | 3 | Less-Dili-Concern |
| CC(=O)N[C@@H](CS)C(=O)O [ACETYLCYSTEINE] | 0 | No-Dili-Concern |
| O=C(O)CCCCCCNC1c2ccccc2CCc2ccccc21 [AMINEPTINE] | 8 | Most-Dili-Concern |
| CCCCCCCCCC(=O)N[C@@H](Cc1c[nH]c2ccccc12)C(=O)N[C@H](CC(N)=O)C(=O)N[C@@H](CC(=O)O)C(=O)N[C@@H]1C(=O)NCC(=O)N[C@@H](CCCN)C(=O)N[C@@H](CC(=O)O)C(=O)N[C@H](C)C(=O)N[C@@H](CC(=O)O)C(=O)NCC(=O)N[C@H](CO)C(=O)N[C@@H]([C@H](C)CC(=O)O)C(=O)N[C@@H](CC(=O)c2ccccc2N)C(=O)O[C@@H]1C [DAPTOMYCIN] | 5 | Less-Dili-Concern |
| COc1ccc2c(c1)[C@]13CCCC[C@@H]1[C@H](C2)N(C)CC3 [DEXTROMETHORPHAN] | 0 | No-Dili-Concern |
| C=CC[N+]1([C@H]2C[C@H]3[C@@H]4CC[C@H]5C[C@H](O)C(N6CCOCC6)C[C@]5(C)[C@H]4CC[C@]3(C)[C@H]2OC(C)=O)CCCC1 (stereo not given in full) | 0 | No-Dili-Concern |
| CCCCCC(=O)O[C@]1(C(C)=O)CC[C@H]2[C@@H]3CCC4=CC(=O)CC[C@]4(C)[C@H]3CC[C@@]21C [HYDROXYPROGESTERONE CAPROATE] | 2 | Ambiguous-Dili-Concern |
| Cc1ccc(-c2cc(C(F)(F)F)nn2-c2ccc(S(N)(=O)=O)cc2)cc1 [CELECOXIB] | 3 | Less-Dili-Concern |
| Fc1ccccc1C1=NCC(=S)N(CC(F)(F)F)c2ccc(Cl)cc21 [QUAZEPAM] | 0 | No-Dili-Concern |
| Cc1[nH]c(=O)c(C#N)cc1-c1ccncc1 [MILRINONE] | 3 | Ambiguous-Dili-Concern |
| Cc1cc(C(=O)NNCc2ccccc2)no1 [ISOCARBOXAZID] | 5 | Ambiguous-Dili-Concern |
| COC(=O)C1=C(C)NC(C)=C(C(=O)OC(C)C)C1c1cccc2nonc12 (stereo not given) [ISRADIPINE] | 3 | Less-Dili-Concern |
| CC[C@@H](CO)NC(=O)[C@@H]1C=C2c3cccc4c3c(cn4C)C[C@H]2N(C)C1 [METHYSERGIDE] | 0 | No-Dili-Concern |
| COc1ccc2cc([C@H](C)C(=O)O)ccc2c1 [NAPROXEN] | 3 | Less-Dili-Concern |
| CN(C)[C@@H]1C(O)=C(C(N)=O)C(=O)[C@@]2(O)C(O)=C3C(=O)c4c(O)ccc(Cl)c4[C@@H](O)[C@H]3C[C@@H]12 [DEMECLOCYCLINE] | 3 | Ambiguous-Dili-Concern |
| CC(COc1ccccc1)N(CCCl)Cc1ccccc1 (stereo not given) [PHENOXYBENZAMINE] | 0 | No-Dili-Concern |
| NYSTATIN | 0 | No-Dili-Concern |
| NC(=O)CC[C@@H]1NC(=O)[C@H](Cc2ccccc2)NC(=O)[C@H](Cc2ccc(O)cc2)NC(=O)CCSSC[C@@H](C(=O)N2CCC[C@H]2C(=O)N[C@H](CCCN=C(N)N)C(=O)NCC(N)=O)NC(=O)[C@H](CC(N)=O)NC1=O [DESMOPRESSIN] | 3 | Ambiguous-Dili-Concern |
| C[C@H](Cn1cnc2c(N)ncnc21)OCP(=O)(O)O [TENOFOVIR ANHYDROUS] | 3 | Less-Dili-Concern |
| CC(C(=O)O)c1cccc(C(=O)c2ccccc2)c1 (stereo not given) [KETOPROFEN] | 3 | Less-Dili-Concern |
| CNC1(C)C2CCC(C2)C1(C)C (stereo not given) [MECAMYLAMINE] | 0 | No-Dili-Concern |
| CC(COc1ccccc1)NC(C)C(O)c1ccc(O)cc1 (stereo not given) [ISOXSUPRINE] | 0 | No-Dili-Concern |
| N[C@@H]1[C@H]2CN(c3nc4c(cc3F)c(=O)c(C(=O)O)cn4-c3ccc(F)cc3F)C[C@@H]12 [TROVAFLOXACIN] | 8 | Most-Dili-Concern |
| C[C@]12CC[C@@H]3c4ccc(O)cc4CC[C@H]3[C@@H]1CC[C@@H]2O [ESTRADIOL] | 2 | Less-Dili-Concern |
